For the series, the system named is Primiparous sows. The experiment in a line: Proof of concept study, WOI (weaning to oestrus interval) in primiparous sows. Type of series: in vivo, Sus scrofa domesticus. The protocol: All sows included in this study were recruited from a single farm having an historical mean of WOI of 5.4 days, and a percentage of delayed oestrus (8 days) of 7.9%. Weaning was set after about 3 weeks of lactation. Primiparous sows (with normal health status and normal farrowing) were allocated into three groups: Cab_0 (n=19 sows): 5.6 μg/kg of cabergoline by intramuscular injection at weaning day (day 0) in sows, i.e. at the end of lactation, without suckling piglets. Cab_2 (n=30 sows): 5.6 μg/kg of cabergoline by intramuscular injection 2 days before weaning (day-2) in sows, i.e. lactation still pending with suckling piglets. Negative control group (n=29 sows): equivalent dose/volume of a ‘true’ placebo by intramuscular injection at Day-2 and day 0.

The mark [1] stands for this setting: group Cab_0: 5.6 μg/kg intramuscular at weaning day (day 0).
Setting [2] is: group Cab_0: 5.6 μg/kg intramuscular at weaning day (day 0), n=19 sows.
Setting [3] is: group Cab_2: 5.6 μg/kg intramuscular 2 days before weaning (day-2), n=30 sows.

With `C=CCN1C[C@H](C(=O)N(CCCN(C)C)C(=O)NCC)C[C@@H]2c3cccc4[nH]cc(c34)C[C@H]21` [cabergoline, 1-[(6-allylergolin-8ß-yl)-carbonyl]-1-[3-(dimethylamino)propyl]-3-ethylurea], the “impact of the treatment on fertility” value (all sows diagnosed positively pregnant after artificial insemination following oestrus detection, Cab_0 and Cab_2 groups) is given as “no negative impact”. Under setting [1], the “sows exhibiting delayed oestrus (after or equal 8 days), number of sows per group” value is 1/19 and the “sows exhibiting delayed oestrus (after or equal 8 days), percentage” value was found to be 5.3%. Also, under setting [2], the “number of sows in heats, WOI 8-14 days” value was determined as 1; the “number of sows in heats, WOI 3 days” value is 1; the “number of sows in heats, WOI 4 days” value was 6; the “number of sows in heats, WOI 5 days” value is recorded as 8. Under setting [2], the “number of sows in heats, WOI 6 days” value is reported as 2 and the “number of sows in heats, WOI 7 days” value came out at 1. Moreover, the “delayed oestrus (after or equal 8 days)” value (group Cab_2: 5.6 μg/kg intramuscular 2 days before weaning (day-2)) is given as “no delayed oestrus”. For the same compound, under setting [3], the “number of sows in heats, WOI 3 days” value is 2; the “number of sows in heats, WOI 4 days” value came out at 13; the “number of sows in heats, WOI 5 days” value was 10; the “number of sows in heats, WOI 6 days” value is 5. Besides, the “number of sows in heats, WOI 7 days” value under setting [3] is 0.

Values taken from patent US20200375980A1, “VETERINARY ANTIPROLACTINIC COMPOSITION” (CEVA SANTE ANIMALE, priority 2018, published 2020).
